Reference: patent US20240262793A1, “QUINAZOLINE COMPOUND, AND PREPARATION METHOD THEREFOR AND APPLICATION THEREOF” (SHANGHAI PHARMACEUTICALS HOLDING CO., LTD., priority 2021, published 2024)

Assays:
Type in all cases: cell-based
Conditions in all cases: Homo sapiens, LPS 100 ng/mL
TNF-α = test: Inhibition of TNF-α in PMA-differentiated, LPS-stimulated THP-1 cells (ELISA of cell supernatant)
Description: (§1) (1) Cell culture and inoculation: A stock solution of PMA at 1 mg/mL was diluted with serum-free RP1640 medium to prepare a 100 ng/mL PMA solution. Normal cultured THP-1 cells were centrifuged, resuspended in a complete medium (RP1640 medium containing 10% FBS), and counted. The cell density was adjusted to 2×10^6 cells/mL. An equal volume of 100 ng/mL PMA solution was then added, resulting in a cell density of 1×10^6 cells/mL and a final PMA concentration of 50 ng/mL. 100 μL of the cell suspension was seeded into each well of a 96-well cell culture plate with 1×10^5 cells per well. The 96-well cell culture plate was then incubated at 37° C. in a 5% CO2 atmosphere for 24 hours.
(§2) (2) Drug treatment of cells: On the second day, LPS was added to the complete medium to adjust the final concentration to 100 ng/mL, and the compound was prepared using this LPS-containing medium. The compound was added to the appropriate cell wells according to the prepared concentration gradient. The positive control group (LPS+) was a culture medium solution containing a final concentration of 100 ng/mL LPS and 0.1% DMSO without drugs, while the negative control group (LPS-) was a culture medium solution containing 0.1% DMSO without LPS. The volume in each well was 100 μL.
(§3) (3) Test sample collection: The mixture was centrifuged at 1000 rpm for 5 minutes and the cell supernatant and cell precipitate were collected separately. The cell supernatant was used to detect TNF-α and IL-6, and the cell precipitate was collected for IL-1β detection. After collecting the cell supernatant, the remaining liquid in the wells was discarded and 100 μL of cell lysis solution (20 mM Tris 8.0; 2 mM EDTA; 0.5% Triton X-100) was added to each well for complete lysis.
(§4) (4) Sample detection: The enzyme-linked immunosorbent assay (ELISA) was used to detect the content of each cytokine. The specific steps were performed according to the instructions provided in the corresponding kit manuals. The catalog numbers of kits are as follows: • Human TNF-alpha Quantikine ELISA Kit, Catalog # STA00D • Human IL-1 beta/IL-1F2 Quantikine ELISA Kit, Catalog # SLB50 • Human IL-6 Quantikine ELISA Kit, Catalog # S6050.
(§5) (5) Data analysis: The in vitro inhibitory activity of the compounds was calculated using the following formula: […]

IL-6 = test: Inhibition of IL-6 in PMA-differentiated, LPS-stimulated THP-1 cells (ELISA of cell supernatant)
Description: as §1, §2, §3, §4, §5

IL-1β = test: Inhibition of IL-1β in PMA-differentiated, LPS-stimulated THP-1 cells (ELISA of cell lysate)
Description: as §1, §2, §3, §4, §5

IC50 (TNF-α; THP-1, Table 7, PMA 50 ng/mL)	IC50 (IL-6; THP-1, Table 7, PMA 50 ng/mL)	IC50 (IL-1β; THP-1, Table 7, PMA 50 ng/mL)	IC50 (TNF-α; THP-1, Table 8, PMA 50 ng/mL)	IC50 (IL-6; THP-1, Table 8, PMA 50 ng/mL)	IC50 (IL-1β; THP-1, Table 8, PMA 50 ng/mL)	SMILES
10.4 µM	1.17 µM	17.9 µM				CC(CCCN1C(=O)CN(C)C1=O)Nc1ccnc2cc(Cl)ccc12 (stereo not drawn) [Example 2, 3-(4-((7-Chloroquinolin-4-yl)amino)pentyl)-1-methylimidazolidine-2,4-dione]
			33.5 µM	1.5 µM	38.1 µM	CC(CCCN1C(=O)NC2(CC2)C1=O)Nc1ncnc2cc(Cl)ccc12 (stereo not drawn) [Example 73, 6-(4-((7-Chloroquinazolin-4-yl)amino)pentyl)-4,6-diazaspiro[2.4]heptane-5,7-dione]
			159 µM	18.8 µM	16.3 µM	O=C1CNC(=O)N1CCCCNc1ncnc2cc(F)ccc12 [Example 56, 3-(4-((7-Fluoroquinazolin-4-yl)amino)butyl)imidazoline-2,4-dione]
11.2 µM	0.68 µM	10.9 µM				CC(CCCN(CCO)Cc1ccc(-n2cccn2)cc1)Nc1ccnc2cc(Cl)ccc12 (stereo not drawn) [Example 28, 2-((4-(1H-Pyrazol-1-yl)benzyl)(4-((7-chloroquinolin-4-yl)amino)pentyl)amino)ethan-1-ol]
7.89 µM	0.77 µM	7.4 µM				CC(CCCN(CCO)Cc1ccc(-n2cccn2)cc1)Nc1ncnc2cc(Cl)ccc12 (stereo not drawn) [Example 39]
4.01 µM	1.57 µM	33.8 µM				CC(CCCN(CCO)Cc1ccc(OC(F)(F)F)cc1)Nc1ccnc2cc(F)ccc12 (stereo not drawn) [Example 43]
			11.7 µM	0.58 µM	13.7 µM	CC1(C)NC(=O)N(CCCCCNc2ncnc3cc(Cl)ccc23)C1=O [Example 69, 3-(5-((7-Chloroquinazolin-4-yl)amino)pentyl)-5,5-dimethylimidazoline-2,4-dione]
28.3 µM	10.5 µM	48.3 µM				CCN1CCC2(C1)CN(CCCC(C)Nc1ccnc3cc(Cl)ccc13)C2 (stereo not drawn) [Example 9, 7-Chloro-N-(5-(6-ethyl-2,6-diazaspiro[3.4]octan-2-yl)pentan-2-yl)quinolin-4-amine]
3.82 µM	0.33 µM	14 µM				CC(CCCN(CCO)Cc1ccc(S(C)(=O)=O)cc1)Nc1ccnc2cc(Cl)ccc12 (stereo not drawn) [Example 26, 2-((4-((7-Chloroquinolin-4-yl)amino)pentyl)(4-(methylsulfonyl)benzyl)amino)ethan-1-ol]
6.86 µM	1.05 µM	17.2 µM				COC(=O)c1ccc(CN(CCO)CCCC(C)Nc2ncnc3cc(Cl)ccc23)cc1 (stereo not drawn) [Example 36, Methyl 4-(((4-((7-chloroquinazolin-4-yl)amino)pentyl)(2-hydroxyethyl)amino)methyl)benzoate]
6.4 µM	0.47 µM	5.9 µM				CC(CCCN(CCO)Cc1cccc(F)c1)Nc1ncnc2cc(Cl)ccc12 (stereo not drawn) [Example 20, 2-((4-((7-Chloroquinazolin-4-yl)amino)pentyl)(3-fluorobenzyl)amino)ethan-1-ol]
29.9 µM	10.6 µM	24.3 µM				O=C1CCC(=O)N1CCCCNc1ccnc2cc(Cl)ccc12 [Example 11, 1-(4-((7-Chloroquinolin-4-yl)amino)butyl)pyrrolidine-2,5-dione]
53.2 µM	0.59 µM	23.4 µM				CC(CCCN(CCO)Cc1ncco1)Nc1ncnc2cc(Cl)ccc12 (stereo not drawn) [Example 16, 2-((4-((7-Chloroquinazolin-4-yl)amino)pentyl)(oxazol-2-ylmethyl)amino)ethan-1-ol]
12.6 µM	1.09 µM	10.3 µM				OCCN(CCCCCNc1ncnc2cc(Cl)ccc12)Cc1ccc(OC(F)(F)F)cc1 [Example 45, 2-((5-((7-Chloroquinazolin-4-yl)amino)pentyl)(4-(trifluoromethoxy)benzyl)amino)ethan-1-ol]
